Read-outs that look alike come from different tables or passages of the source.

The nature of data set [1]: Determination of log P values by HPLC on reversed-phase column (C18). The format is physicochemical. The protocol:
Unless indicated otherwise, the following method was used to determine the log P values and masses: The determination of the given log P values was carried out in accordance with EEC Directive 79/831 Annex V.A8 by HPLC (High Performance Liquid Chromatography) on a reversed-phase column (C18). […] Mass detection is effected by means of an Agilend MSD system.

The next data set has as its system Meloidogyne incognita. Description: Meloidogyne incognita test (MELGIN). Format: in vivo. The settings on record: 20 ppm, lettuce, after 14 days. How it is done:
Meloidogyne incognita test (MELGIN)
Solvent: 125.0 parts by weight of acetone
To produce a suitable active compound formulation, 1 part by weight of active compound is mixed with the stated amount of solvent and the concentrate is diluted with water to the desired concentration.
Vessels are filled with sand, active compound solution, an egg/larvae suspension of the southern root-knot nematode (Meloidogyne incognita) and lettuce seeds. The lettuce seeds germinate and the plants develop. The galls develop on the roots.
After 14 days, the nematicidal efficacy in % is determined by the formation of galls. 100% means that no galls were found; 0% means that the number of galls on the treated plants corresponds to the untreated control.

The subject of a further data set is Haemonchus contortus. Description: Haemonchus contortus test (HAEMCO). The settings on record: 20 ppm, larvae of the red stomach worm, after 5 days. The format is in vivo. The protocol: Haemonchus contortus—test (HAEMCO)
(§1) Solvent: dimethyl sulphoxide
(§2) To produce a suitable preparation of active compound, 10 mg of active compound are mixed with 0.5 ml of dimethyl sulphoxide and the concentrate is diluted with “Ringer's solution” to the desired concentration.
Vessels containing the active compound preparation of the desired concentration are populated with about 40 larvae of the red stomach worm (Haemonchus contortus).
(§3) After 5 days, the kill in % is determined. 100% means that all the larvae has been killed; 0% means that none of the larvae has been killed.

The test system of another data set is Phaedon cochleariae. The data set is described as follows: Phaedon cochleariae spray test (PHAECO). Format: in vivo. Particulars: 500 g/ha, Chinese cabbage leaf discs, after 7 days. The protocol:
Phaedon cochleariae—spray test (PHAECO) • Solvent: 78.0 parts by weight of acetone 1.5 parts by weight of dimethylformamide • Emulsifier: alkylaryl polyglycol ether
(§4) To produce a suitable preparation of active compound, 1 part by weight of active compound is dissolved using the stated parts by weight of solvent and made up with water containing an emulsifier concentration of 1000 ppm until the desired concentration is attained. To produce further test concentrations, the preparation is diluted with emulsifier-containing water.
After 7 days, the efficacy in % is determined. 100% means that all the beetle larvae have been killed; 0% means that no beetle larvae have been killed.

In a further data set the test system is Cooperia curticei. Description: Cooperia curticei test (COOPCU). Particulars: 20 ppm, nematode larvae, after 5 days. The format is in vivo. How it is done:
Cooperia curticei test (COOPCU)
as §1, §2
Vessels containing the active compound preparation of the desired concentration are populated with about 40 nematode larvae (Cooperia curticei).
as §3

The test system of the next data set is Boophilus microplus. The data set is described as follows: Boophilus microplus injection test (BOOPMI inj). Format: in vivo. Particulars: 20 μg/animal, injection into engorged adult female cattle ticks, assessed after 7 days. How it is done: Boophilus microplus—injection test (BOOPMI inj)
as §1
To produce a suitable preparation of active compound, 10 mg of active compound are mixed with 0.5 ml of solvent and the concentrate is diluted with solvent to the desired concentration.
1 μl of the active compound solution is injected into the abdomen of 5 engorged adult female cattle ticks (Boophilus microplus). The animals are transferred into dishes and kept in a climate-controlled room.
Efficacy is assessed after 7 days by laying of fertile eggs. Eggs which are not visibly fertile are stored in a climate-controlled cabinet until the larvae hatch after about 42 days. An efficacy of 100% means that none of the ticks has laid any fertile eggs; 0% means that all the eggs are fertile.

Another data set concerns Tetranychus urticae. The data set is described as follows: Tetranychus urticae spray test, OP-resistant (TETRUR). Format: in vivo. Particulars: 500 g/ha, bean leaf discs, after 6 days. How it is done:
Tetranychus urticae—spray test, OP-resistant (TETRUR) • Solvent: 78.0 parts by weight of acetone 1.5 parts by weight of dimethylformamide • Emulsifier: alkylaryl polyglycol ether
as §4
Discs of bean leaves (Phaseolus vulgaris) infested by all stages of the greenhouse red spider mite (Tetranychus urticae) are sprayed with an active compound formulation of the desired concentration.
After 6 days, the efficacy in % is determined. 100% means that all the spider mites have been killed; 0% means that no spider mites have been killed.

The mark [2] stands for this setting: formic acid method, read-out: log P(HCOOH).
[3] abbreviates: neutral, read-out: log P(neutral).

`Nc1cnn(-c2c(F)cccc2F)c1` [1-(2,6-Difluorophenyl)-1H-pyrazole-4-amine]: the chromatographic logP was 0.09 in data set [1] (setting [2]) and 0.89 in data set [1] (setting [3]).
Taken in the same sequence, the figures for `Nc1cnn(-c2c(F)cccc2F)c1C(F)(F)F` [1-(2,6-Difluorophenyl)-5-(trifluoromethyl)-1H-pyrazole-4-amine] were 2.14 and 2.13.
As for `O=C(O)c1cnn(-c2c(F)cccc2F)c1C(F)(F)F` [1-(2,6-Difluorophenyl)-5-(trifluoromethyl)-1H-pyrazole-4-carboxylic acid], the chromatographic logP is 2.1 in data set [1] (setting [2]) and 0.13 in data set [1] (setting [3]).
For the molecule `O=[N+]([O-])c1cnn(-c2c(F)cc(Cl)cc2F)c1` [1-(4-Chloro-2,6-difluorophenyl)-4-nitro-1H-pyrazole], the chromatographic logP in data set [1] (setting [2]) was 2.74; in data set [1] (setting [3]), 2.72.
For `Fc1cc(Cl)cc(F)c1-n1cccn1` [1-(4-chloro-2,6-difluorophenyl)pyrazole] the same measures were 2.36 and 2.34.
For `Nc1cnn(-c2c(F)cc(F)cc2F)c1C(F)(F)F` [5-(Trifluoromethyl)-1-(2,4,6-trifluorophenyl)-1H-pyrazole-4-amine] the same measures were 2.35 and 2.35.
Turning to `Nc1cnn(-c2c(F)cc(Cl)cc2F)c1Cl` [5-Chloro-1-(4-chloro-2,6-difluorophenyl)-1H-pyrazole-4-amine], the chromatographic logP worked out at 2.08 in data set [1] (setting [2]) and 2.14 in data set [1] (setting [3]).
For `NNc1c(F)cc(Cl)cc1F` [(4-chloro-2,6-difluorophenyl)hydrazine] the same measures were 0.15 and 1.44.
With `CCOC(=O)c1cnn(-c2c(F)cccc2F)c1C(F)(F)F` [Ethyl 1-(2,6-difluorophenyl)-5-(trifluoromethyl)-1H-pyrazole-4-carboxylate], the chromatographic logP amounted to 3.56 in data set [1] (setting [2]) and 3.52 in data set [1] (setting [3]).
Turning to `O=C(Nc1cnn(-c2ccccc2F)c1)c1ccccc1I` [I-1-7], in the data set with Meloidogyne incognita, the “nematicidal efficacy (formation of galls)” value (“nematicidal efficacy” for short) is given as 90%. The “efficacy (kill in %)” value in the data set with Haemonchus contortus and with Cooperia curticei was 90% each time. In addition, the “efficacy (beetle larvae killed)” value in the data set on Phaedon cochleariae came out at 83%.
On to `O=C(Nc1cnn(-c2ccccc2F)c1)c1ccccc1C(F)(F)F` [I-1-8], for which, in the data set on Meloidogyne incognita, the “nematicidal efficacy” value is 90%. The “efficacy (kill in %)” value with Haemonchus contortus and in the data set on Cooperia curticei was 100% throughout.
With `O=C(Nc1cnn(-c2c(F)cccc2F)c1)c1ccccc1C(F)(F)F` [I-1-9, N-[1-(2,6-Difluorophenyl)-1H-pyrazol-4-yl]-2-(trifluoromethyl)benzamide], in the data set on Meloidogyne incognita, the “nematicidal efficacy” value came out at 100%. Also, the chromatographic logP turned out to be 2.45 in data set [1] (setting [2]) and 2.36 in data set [1] (setting [3]). Further, the “efficacy (kill in %)” value in the data set with Haemonchus contortus and with Cooperia curticei was 100% throughout.
Turning to `O=C(Nc1cnn(-c2ncccc2F)c1)c1ccccc1C(F)(F)F` [I-1-10], the “nematicidal efficacy” value in the data set on Meloidogyne incognita turned out to be 90%. The “efficacy (kill in %)” value with Haemonchus contortus came to 90%. Besides, the “efficacy (laying of fertile eggs)” value in the data set with Boophilus microplus came to 100%.
As for `O=C(Nc1cnn(-c2ncccc2F)c1)c1ccccc1Br` [I-1-16], the “nematicidal efficacy” value with Meloidogyne incognita was 90%.
On to `O=C(Nc1cnn(-c2ncccc2F)c1)c1ccccc1Cl` [I-1-17], for which, in the data set with Meloidogyne incognita, the “nematicidal efficacy” value came out at 100%.
Regarding `O=C(Nc1cnn(-c2ncccc2F)c1)c1c(F)cccc1C(F)(F)F` [I-1-18], the “efficacy (kill in %)” value in the data set with Haemonchus contortus is given as 80%.
Consider `O=C(Nc1cnn(-c2ncccc2Cl)c1)c1ccccc1I` [I-1-22], for which, in the data set on Haemonchus contortus, the “efficacy (kill in %)” value amounted to 100%.
On to `O=C(Nc1cnn(-c2ncccc2Cl)c1)c1ccccc1Cl` [I-1-23], for which the “nematicidal efficacy” value in the data set with Meloidogyne incognita was 90%. Further, the “efficacy (kill in %)” value in the data set with Haemonchus contortus amounted to 90%. In addition, in the data set with Phaedon cochleariae, the “efficacy (beetle larvae killed)” value is 100%.
For the molecule `O=C(Nc1cnn(-c2ncccc2Cl)c1)c1ccccc1C(F)(F)F` [I-1-24], the results for the “efficacy (kill in %)” value with Haemonchus contortus and in the data set on Cooperia curticei were 100% and 90%, respectively.
As for `O=C(Nc1cnn(-c2ncccc2Cl)c1)c1c(F)cccc1C(F)(F)F` [I-1-25], the figures for the “efficacy (kill in %)” value with Haemonchus contortus and with Cooperia curticei were 100% and 90%, respectively.
For `O=C(Nc1cnn(-c2ncccc2Cl)c1)c1ccccc1Br` [I-1-26], the “efficacy (kill in %)” value with Haemonchus contortus was determined as 100%.
As for `O=C(Nc1cnn(-c2ncccc2Br)c1)c1ccccc1C(F)(F)F` [I-1-29], the “efficacy (kill in %)” value with Cooperia curticei amounted to 80%.
For `O=C(Nc1cnn(-c2ncccc2Br)c1)c1ccccc1Cl` [I-1-30], in the data set with Phaedon cochleariae, the “efficacy (beetle larvae killed)” value came out at 83%.
For `O=C(Nc1cnn(-c2ncccc2Br)c1)c1c(F)cccc1F` [I-1-31], the “efficacy (beetle larvae killed)” value in the data set with Phaedon cochleariae was 100%.
In the case of `O=C(Nc1cnn(-c2cc(F)cnc2F)c1)c1ccccc1I` [I-1-33], the “efficacy (kill in %)” value with Cooperia curticei is recorded as 80%.
Take `O=C(Nc1cnn(-c2cnc(F)c(F)c2)c1)c1c(F)cccc1C(F)(F)F` [I-1-36]: the “efficacy (kill in %)” value with Cooperia curticei is on record as 100%.
For the molecule `O=C(Nc1cnn(-c2c(F)cccc2F)c1)c1ccccc1Br` [I-1-40], the “efficacy (kill in %)” value with Haemonchus contortus was determined as 90%; in the data set on Cooperia curticei, 80%.
With `O=C(Nc1cnn(-c2c(F)cccc2F)c1)c1ccccc1Cl` [I-1-41], the “efficacy (beetle larvae killed)” value in the data set with Phaedon cochleariae was determined as 100%.
As to `O=C(Nc1cnn(-c2c(F)cccc2F)c1)c1c(F)cccc1C(F)(F)F` [I-1-42], the results for the “efficacy (kill in %)” value in the data set on Haemonchus contortus and in the data set with Cooperia curticei were 100% and 80%, respectively.
As for `O=C(Nc1cnn(-c2c(F)cc(Cl)cc2F)c1Cl)c1ccccc1I` [I-1-44], in the data set with Tetranychus urticae, the “efficacy (spider mites killed)” value was found to be 95%.
For `N#Cc1cccc(F)c1-n1cc(NC(=O)c2ccccc2C(F)(F)F)cn1` [I-1-52, N-[1-(2-Cyano-6-fluorophenyl)-1H-pyrazol-4-yl]-2-(trifluoromethyl)benzamide], the values for the chromatographic logP in data set [1] (setting [2]) and in data set [1] (setting [3]) were 2.37 and 2.33, respectively.
For the molecule `O=C(Nc1cnn(-c2c(F)cccc2C(F)(F)F)c1)c1ccccc1C(F)(F)F` [I-1-53], the “efficacy (kill in %)” value in the data set with Cooperia curticei is on record as 100%.
As for `O=C(Nc1cnn(-c2c(F)cccc2F)c1)c1cccnc1C(F)(F)F` [I-1-58], the “efficacy (kill in %)” value in the data set on Haemonchus contortus was determined as 80%.
As for `O=C(Nc1cnn(-c2c(F)cccc2Cl)c1)c1ccccc1C(F)(F)F` [I-1-60], in the data set on Meloidogyne incognita, the “nematicidal efficacy” value was 90%.
The same measure, in the same setting: with `N#Cc1cccc(C#N)c1-n1cc(NC(=O)c2ccccc2C(F)(F)F)cn1` [I-1-68] the figure was 100%.
With `O=C(Nc1cn[nH]c1)c1ccccc1C(F)(F)F` [N-(1H-Pyrazol-4-yl)-2-(trifluoromethyl)benzamide], the chromatographic logP came to 1.21 in data set [1] (setting [2]) and 1.22 in data set [1] (setting [3]).
On to `CC(C)(C)OC(=O)Nc1cnn(-c2c(F)cccc2F)c1C(F)(F)F` [tert-Butyl [1-(2,6-difluorophenyl)-5-(trifluoromethyl)-1H-pyrazol-4-yl]carbamate], for which the chromatographic logP in data set [1] (setting [2]) came to 3.61; in data set [1] (setting [3]), 3.58.
